Data as given in US8410109B2, “Pharmaceutical compositions for the prevention and treatment of complex diseases and their delivery by insertable medical devices” (Resverlogix Corp., priority 2005, dated 2013).

Experiments:
MCP-1 = MCP-1 ELISA on culture media of TNF-α stimulated HUVECs; type: cell-based; conditions: Homo sapiens, HUVEC, 50 uM, approx. 16 hours
Method: (§1) Compounds were dissolved in DMSO, aliquoted, and stored at −20° C. Cultured human vascular endothelial cells (HUVECs) were seeded in 96-well plates in complete EGM-2 media (˜100 μL/well); cells were plated at ˜2-3×10^5/mL, and were from passage 8 to 12. Cells were incubated overnight. On the following day cells are stimulated with TNF-α (˜1 ng/mL) in the presence or absence of compounds dissolved in DMSO. Triplicate wells were used for each test. To establish a dose curve and an IC50, multiple concentrations in 2- to 5-fold increments were used. Cells were exposed to TNF-α and compounds for approximately 16 hours. The next day, cells were visually examined via light microscopy to score for visual signs of toxicity. Cell culture media was analyzed using an MCP-1 ELISA. Cells were refed (−100 μL/well) with 20% CellTiter 96. Aqueous One Cell Proliferation Solution (Promega), 80% EGM-2 medium. Media optical density (at 490 nm) was determined after 1 hour. Plates were aspirated and cell lysates were prepared and these lysates were tested using a VCAM-1 ELISA.
(§2) In Table 2, a positive result (+) was defined as at least 50% inhibition of the protein levels MCP-1 or VCAM-1, as determined by the ELISA.

[1] = system: Human coronary artery smooth muscle cells (CASMCs); assay: Smooth muscle cell proliferation protocol; type: cell-based; conditions: 50 uM, 72 hours, read-out: % Inhibition of SMC Proliferation
Method: Compounds were dissolved in DMSO, aliquoted, and stored at −20° C. Human coronary artery smooth muscle cells (CASMCs) were plated in 96-well plates and were grown in SmBM-2 media. After 1-2 hours, media was aspirated and replaced with serum-free ME/F12 media, except the controls. Cells were incubated for a further 48 hours. Compounds were diluted in DME/F12 containing 10% FBS. Media was aspirated from the plates and compounds in DME/F12 containing 10% FBS. Six wells were used per condition and duplicate plates were used. Cells were incubated for a further 72 hours. Media was aspirated from one set of plates; those cells were refed (˜100 μL/well) with 20% CellTiter 96 Aqueous One Cell Proliferation Solution (Promega), 80% EGM-2 medium. Media optical density (at 490 nm) was determined after 3-4 hours. In the second set of plates, serum-free DME/F12 media (20 μL) was added to each well. Part of the supernatant (50 μL) was removed and placed in an ELISA plate and was stored temporarily at 4° C. The remaining media and cells in the second set of plates were freeze-thawed for four cycles. The lysates and supernatants were mixed and centrifuged. Part of the supernatant (50 μL) was removed and placed in an ELISA plate. The Promega Cytotox assay was performed on the ELISA plates. The ratio of supernatant OD to supernatant+cell lysate OD was determined.
In Table 2, a positive result (+) was defined as at least 40% inhibition of the proliferation of SMC, as determined by the assay.

VCAM-1 = VCAM-1 ELISA on lysates of TNF-α stimulated HUVECs; type: cell-based; conditions: Homo sapiens, HUVEC, 50 uM, approx. 16 hours
Method: as §1, §2

[2] = following oral administration (Gugler et al. 1975); cited from earlier work

Structure (SMILES) | inhibition at 50 µM (MCP-1) | inhibition at 50 µM [1] | melting point | inhibition at 50 µM (VCAM-1) | intestinal absorption [2]
O=c1cc(-c2cccnc2)oc2ccccc12 [EXAMPLE 25, 2-(pyridin-3-yl)-4H-chromen-4-one] | < 50% | ≥ 40% | 122.8 to 124 °C | < 50% | 
O=c1cc(-c2ccc(O)c(-c3cccs3)c2)oc2ncccc12 [EXAMPLE 28, 2-(4-hydroxy-3-(thiophen-2-yl)phenyl)-4H-pyrano[2,3-b]pyridin-one] | < 50% | < 40% | 273.5 to 275 °C | ≥ 50% | 
Cc1cc(-c2cc(=O)c3cccnc3o2)cc(C)c1OCC(=O)O [EXAMPLE 29, 2-(2,6-dimethyl-4-(4-oxo-4H-pyrano[2,3-b]pyridin-2-yl)phenoxy)acetic Acid] | < 50% | ≥ 40% | 280 °C | < 50% | 
O=c1cc(-c2ccc(O)c(Br)c2)oc2ncccc12 [EXAMPLE 32, 2-(3-Bromo-4-hydroxyphenyl)-4H-pyrano[2,3-b]pyridin-4-one] | < 50% | ≥ 40% | 267 to 272 °C | ≥ 50% | 
O=c1[nH]c2ccc(-c3cc(=O)c4ccccc4o3)cc2o1 [EXAMPLE 36, 6-(4-oxo-4H-chromen-2-yl)benzo[d]oxazol-2(3H)-one] | < 50% | ≥ 40% | 347.6 to 348.2 °C | ≥ 50% | 
COc1cc(OC)c2c(=O)[nH]c(-c3cc(C)c(OCC(C)(C)O)c(C)c3)cc2c1 [EXAMPLE 42, 3-(4-(2-hydroxy-2-methylpropoxy)-3,5-dimethylphenyl)-6,8-dimethoxyisoquinolin-1(2H)-one] | < 50% | ≥ 40% | 252 to 254 °C | ≥ 50% | 
O=c1cc(-c2ccc3nccnc3c2)oc2ncccc12 [EXAMPLE 44, 2-(quinoxalin-6-yl)-4H-pyrano[2,3-b]pyridin-4-one] | < 50% | ≥ 40% | 272.3 to 274.8 °C | ≥ 50% | 
COc1cc(OC)c2c(N)nc(-c3cc(C)c(O)c(C)c3)cc2n1 [EXAMPLE 45, 4-(5-amino-2,4-dimethoxy-1,6-naphthyridin-7-yl)-2,6-dimethylphenol] | < 50% | ≥ 40% | 163.2 to 165.5 °C | ≥ 50% | 
O=c1[nH]c(-c2ccc(F)cc2)nc2ccc(CN3CCOCC3)cc12 [EXAMPLE 46, 2-(4-fluorophenyl)-6-(morpholinomethyl)quinazolin-4(3H)-one] | < 50% | ≥ 40% | 321.8 to 323.3 °C | < 50% | 
O=c1cc(-c2ccc3[nH]ncc3c2)oc2ncc(CN3CCOCC3)cc12 [EXAMPLE 47, 2-(1H-indazol-5-yl)-6-(morpholinomethyl)-4H-pyrano[2,3-b]pyridin-4-one] | < 50% | ≥ 40% | 293.1 to 293.2 °C | < 50% | 
O=c1c(O)c(-c2ccc(O)c(O)c2)oc2cc(O)cc(O)c12 [quercetin] |  |  |  |  | less than 1%
